Measurements reported in patent US10188653B2, “Diacylglycerol acyltransferase 2 inhibitors” (Pfizer Inc., priority 2014, dated 2019).

Molecular target: hDGAT2 (Homo sapiens (Human), UniProt Q96PD7)
Test: In vitro DGAT2 assay, determination of IC50 values for DGAT2 inhibitors
Type: biochemical
Details: hDGAT2 membrane fraction; [1-14C]decanoyl-CoA and 1,2-didecanoyl-sn-glycerol substrates; geometric mean IC50; read-out: IC50 values of Examples for inhibition of DGAT2
Description: Recombinant baculovirus for the FLAG-tagged hDGAT2 was generated in SF9 insect cells using Bac-to-Bac baculovirus expression system (Invitrogen) according to the manufacturer's protocol. For the expression of hDGAT2, SF9 cells (20 L) grown in Sf900II media were infected with hDGAT2 baculovirus at a multiplicity of infection of 1 in a Wave Bioreactor System 20/50P wave bag (GE Healthcare). After 40 hours of infection, the cells were then harvested by centrifugation at 5,000×g. The cell pellets were washed by resuspending in phosphate buffered saline (PBS) and collected by centrifugation at 5,000×g. The cell paste was flash frozen in liquid N2 and stored at −80° C. until needed. All operations below were at 4° C. unless otherwise noted. […]
For determination of IC50 values, the reactions were carried out in 384-well white Polyplates (Perkin Elmer) in a total volume of 20 μL. […] Plates were centrifuged at 2,000×g for 1 min in an Allegra 6R Centrifuge (Beckman Coulter) and then were sealed again with fresh covers before reading in a 1450 Microbeta Wallac Trilux Scintillation Counter (Perkin Elmer). DGAT2 activity was measured by quantifying the generated product [^14C]tridecanoylglycerol in the upper organic phase. […]

Chain of hDGAT2 (Q96PD7 whole entry): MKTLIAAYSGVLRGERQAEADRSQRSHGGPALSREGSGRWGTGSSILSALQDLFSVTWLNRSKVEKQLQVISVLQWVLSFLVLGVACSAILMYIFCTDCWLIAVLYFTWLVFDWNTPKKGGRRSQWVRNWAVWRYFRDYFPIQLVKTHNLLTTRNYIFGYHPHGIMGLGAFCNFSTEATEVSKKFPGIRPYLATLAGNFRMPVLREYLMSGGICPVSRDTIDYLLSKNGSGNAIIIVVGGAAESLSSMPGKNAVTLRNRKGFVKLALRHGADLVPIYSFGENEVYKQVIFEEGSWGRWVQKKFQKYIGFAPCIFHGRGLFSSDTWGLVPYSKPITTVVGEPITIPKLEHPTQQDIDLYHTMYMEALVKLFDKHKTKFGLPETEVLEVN

IC50: 7.9 nM
Substance: (R)-2-(3-(2-ethoxy- phenoxy)piperidin-1-yl)- N-(1-hydroxy-2-methyl- propan-2-yl)pyrimidine- 5-carboxamide [Example 19.21]
